Experimental data as given in the supplement of paper PMC10307832.

Assays:
Experiment in all cases: relative viability (nuclei count vs DMSO), 5 days (fraction); higher = more cells survive
NCI-H2342 = test system: NCI-H2342
How it was run: (§1)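 After 5 days of treatment, lung cancer cells in 1536-well plates were fixed and stained in a single step (final 0.05% Triton X-100, 1% formaldehyde, 1 ug/ml Hoechst) and their nuclei counted on 4× images. Treatment had been applied by pin tool the day after seeding as one drug alone or as a fixed anchor-drug dose with five library-drug doses (not always all listed) in √10 steps. Relative viability is the nuclei count of treated wells divided by that of vehicle wells, and values are medians of duplicate plates.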

NCI-H1792 = test system: NCI-H1792
How it was run: as §1

NCI-H838 = test system: NCI-H838
How it was run: as §1

A-427 = test system: A-427
How it was run: as §1

CAL-12T = test system: CAL-12T
How it was run: as §1

NCI-H1915 = test system: NCI-H1915
How it was run: as §1

EPLC-272H = test system: EPLC-272H
How it was run: as §1

NCI-H1975 = test system: NCI-H1975
How it was run: as §1

HCC-15 = test system: HCC-15
How it was run: as §1

NCI-H1395 = test system: NCI-H1395
How it was run: as §1

NCI-H2347 = test system: NCI-H2347
How it was run: as §1

NCI-H2405 = test system: NCI-H2405
How it was run: as §1

Cc1cn(-c2cc(NC(=O)c3ccc(C)c(Nc4nccc(-c5cccnc5)n4)c3)cc(C(F)(F)F)c2)cn1 [Nilotinib] + COc1cccc2cc(-c3nc([C@H]4CC[C@H](C(=O)O)CC4)n4ncnc(N)c34)[nH]c12 [OSI-027] (partner 0.5 µM)
relative viability (NCI-H2342; first compound 0.01 µM): 0.558 | relative viability (NCI-H2342; first compound 0.03162 µM): 0.536 | relative viability (NCI-H2342; first compound 0.1 µM): 0.518 | relative viability (NCI-H1792; first compound 0.001 µM): 0.503 | relative viability (NCI-H1792; first compound 0.003162 µM): 0.473 | relative viability (NCI-H1792; first compound 0.01 µM): 0.667 | relative viability (NCI-H1792; first compound 0.1 µM): 0.555 | relative viability (NCI-H838; first compound 0.001 µM): 0.427 | relative viability (NCI-H838; first compound 0.003162 µM): 0.381 | relative viability (NCI-H838; first compound 0.01 µM): 0.377 | relative viability (NCI-H838; first compound 0.03162 µM): 0.35 | relative viability (NCI-H838; first compound 0.1 µM): 0.429 | relative viability (A-427; first compound 0.001 µM): 0.369 | relative viability (A-427; first compound 0.003162 µM): 0.456 | relative viability (A-427; first compound 0.01 µM): 0.44 | relative viability (A-427; first compound 0.03162 µM): 0.297 | relative viability (A-427; first compound 0.1 µM): 0.154 | relative viability (CAL-12T; first compound 0.001 µM): 0.612 | relative viability (CAL-12T; first compound 0.003162 µM): 0.413 | relative viability (CAL-12T; first compound 0.01 µM): 0.426 | relative viability (CAL-12T; first compound 0.03162 µM): 0.427 | relative viability (CAL-12T; first compound 0.1 µM): 0.527 | relative viability (NCI-H1915; first compound 0.001 µM): 0.552 | relative viability (NCI-H1915; first compound 0.003162 µM): 0.659 | relative viability (NCI-H1915; first compound 0.01 µM): 0.61 | relative viability (NCI-H1915; first compound 0.03162 µM): 0.567 | relative viability (NCI-H1915; first compound 0.1 µM): 0.338 | relative viability (EPLC-272H; first compound 0.001 µM): 0.24 | relative viability (EPLC-272H; first compound 0.003162 µM): 0.275 | relative viability (EPLC-272H; first compound 0.01 µM): 0.325 | relative viability (EPLC-272H; first compound 0.03162 µM): 0.246 | relative viability (EPLC-272H; first compound 0.1 µM): 0.177 | relative viability (NCI-H1975; first compound 0.001 µM): 0.598 | relative viability (NCI-H1975; first compound 0.003162 µM): 0.53 | relative viability (NCI-H1975; first compound 0.01 µM): 0.149 | relative viability (NCI-H1975; first compound 0.03162 µM): 0.409 | relative viability (NCI-H1975; first compound 0.1 µM): 0.32 | relative viability (HCC-15; first compound 0.001 µM): 0.562 | relative viability (HCC-15; first compound 0.003162 µM): 0.778 | relative viability (HCC-15; first compound 0.01 µM): 0.775 | relative viability (HCC-15; first compound 0.03162 µM): 0.435 | relative viability (HCC-15; first compound 0.1 µM): 0.306 | relative viability (NCI-H1395; first compound 0.001 µM): 0.673 | relative viability (NCI-H1395; first compound 0.003162 µM): 0.467 | relative viability (NCI-H1395; first compound 0.01 µM): 0.579 | relative viability (NCI-H1395; first compound 0.03162 µM): 0.612 | relative viability (NCI-H1395; first compound 0.1 µM): 0.416 | relative viability (NCI-H2347; first compound 0.001 µM): 0.512 | relative viability (NCI-H2347; first compound 0.003162 µM): 0.429 | relative viability (NCI-H2347; first compound 0.01 µM): 0.388 | relative viability (NCI-H2347; first compound 0.03162 µM): 0.364 | relative viability (NCI-H2347; first compound 0.1 µM): 0.419 | relative viability (NCI-H2405; first compound 0.001 µM): 0.594 | relative viability (NCI-H2405; first compound 0.003162 µM): 0.617 | relative viability (NCI-H2405; first compound 0.01 µM): 0.568 | relative viability (NCI-H2405; first compound 0.03162 µM): 0.609 | relative viability (NCI-H2405; first compound 0.1 µM): 0.432
